Reference: PubChem BioAssay AID248 (DTP/NCI, 2004)
Several values for one entry are separate records, joined by “and”; a condition that tells them apart may be missing. Identical values can stand only once. Inconclusive results and toxic doses are left out. Cut-off read from the data, not from the text of the source: active = T/C of 150% or more; inactive = T/C below 125%.

Test system: L1210 leukemia ip in BDF1 mice, survival T/C
Assay: NCI In Vivo Anticancer Drug Screen. Data for tumor model L1210 Leukemia (intraperitoneal) in B6D2F1 (BDF1) mice
Conditions: higher = longer survival
Method in brief: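 Mice bearing the transplanted tumor received compound or vehicle. Survival of the treated group was divided by that of the vehicle-treated control group to give the ratio.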

[1] = endpoint: mean survival time, dose: 100.0 mg/kg/injection, schedule: Q01DX001 (ip), vehicle: carboxymethylcellulose (CMC)
[2] = endpoint: mean survival time, dose: 100.0 mg/kg/injection, schedule: Q01DX009 (ip), vehicle: carboxymethylcellulose (CMC)
[3] = endpoint: mean survival time, dose: 200.0 mg/kg/injection, schedule: Q01DX001 (ip), vehicle: carboxymethylcellulose (CMC)
[4] = endpoint: mean survival time, dose: 200.0 mg/kg/injection, schedule: Q01DX009 (ip), vehicle: carboxymethylcellulose (CMC)
[5] = endpoint: mean survival time, dose: 400.0 mg/kg/injection, schedule: Q01DX001 (ip), vehicle: carboxymethylcellulose (CMC)
[6] = endpoint: mean survival time, dose: 400.0 mg/kg/injection, schedule: Q01DX009 (ip), vehicle: carboxymethylcellulose (CMC)
[7] = endpoint: mean survival time, dose: 100.0 mg/kg/injection, schedule: Q01DX001 (ip), vehicle: Klucel (hydroxypropylcellulose) (HPC)
[8] = endpoint: mean survival time, dose: 100.0 mg/kg/injection, schedule: Q04DX003 (ip), vehicle: Klucel (hydroxypropylcellulose) (HPC)
[9] = endpoint: mean survival time, dose: 200.0 mg/kg/injection, schedule: Q01DX001 (ip), vehicle: Klucel (hydroxypropylcellulose) (HPC)
[10] = endpoint: mean survival time, dose: 200.0 mg/kg/injection, schedule: Q04DX003 (ip), vehicle: Klucel (hydroxypropylcellulose) (HPC)
[11] = endpoint: mean survival time, dose: 400.0 mg/kg/injection, schedule: Q01DX001 (ip), vehicle: Klucel (hydroxypropylcellulose) (HPC)
[12] = endpoint: mean survival time, dose: 400.0 mg/kg/injection, schedule: Q04DX003 (ip), vehicle: Klucel (hydroxypropylcellulose) (HPC)
[13] = endpoint: mean survival time, dose: 100.0 mg/kg/injection, schedule: Q01DX009 (ip), vehicle: Klucel (hydroxypropylcellulose) (HPC)
[14] = endpoint: mean survival time, dose: 200.0 mg/kg/injection, schedule: Q01DX009 (ip), vehicle: Klucel (hydroxypropylcellulose) (HPC)
[15] = endpoint: mean survival time, dose: 400.0 mg/kg/injection, schedule: Q01DX009 (ip), vehicle: Klucel (hydroxypropylcellulose) (HPC)

Measured: T/C

O=C(Nc1ccc(F)cc1)Oc1ccc2ccccc2c1
inactive: [1] 103 % of control | [2] 95 % of control and 97 % of control | endpoint: mean survival time, dose: 100.0 mg/kg/injection, schedule: Q04DX002 (ip), vehicle: carboxymethylcellulose (CMC) 92 % of control and 98 % of control | [3] 94 % of control | [4] 102 % of control and 90 % of control | endpoint: mean survival time, dose: 200.0 mg/kg/injection, schedule: Q04DX002 (ip), vehicle: carboxymethylcellulose (CMC) 92 % of control and 102 % of control | [5] 97 % of control | [6] 94 % of control and 90 % of control | endpoint: mean survival time, dose: 400.0 mg/kg/injection, schedule: Q04DX002 (ip), vehicle: carboxymethylcellulose (CMC) 93 % of control

O=C(NCCO)C(=O)NCCO
inactive: endpoint: mean survival time, dose: 100.0 mg/kg/injection, schedule: Q04DX002 (ip), vehicle: saline 115 % of control | endpoint: mean survival time, dose: 200.0 mg/kg/injection, schedule: Q04DX002 (ip), vehicle: saline 110 % of control | endpoint: mean survival time, dose: 400.0 mg/kg/injection, schedule: Q04DX002 (ip), vehicle: saline 96 % of control

Cc1ccc(C(=NN=C(N)N)c2ccc(C)cc2)cc1
inactive: endpoint: mean survival time, dose: 3.75 mg/kg/injection, schedule: Q01DX Z (ip), vehicle: saline 101 % of control | endpoint: mean survival time, dose: 7.5 mg/kg/injection, schedule: Q01DX Z (ip), vehicle: saline 95 % of control | endpoint: mean survival time, dose: 7.5 mg/kg/injection, schedule: Q01DX Z (oral), vehicle: saline 98 % of control | endpoint: mean survival time, dose: 15.0 mg/kg/injection, schedule: Q01DX Z (ip), vehicle: saline 93 % of control and 94 % of control | endpoint: mean survival time, dose: 15.0 mg/kg/injection, schedule: Q01DX Z (oral), vehicle: saline 96 % of control | endpoint: mean survival time, dose: 30.0 mg/kg/injection, schedule: Q01DX Z (ip), vehicle: saline 104 % of control | endpoint: mean survival time, dose: 30.0 mg/kg/injection, schedule: Q01DX Z (oral), vehicle: saline 101 % of control | endpoint: mean survival time, dose: 60.0 mg/kg/injection, schedule: Q01DX Z (oral), vehicle: saline 101 % of control

COc1ccccc1N1C(N)=NC(N)=NC1(C)C
inactive: endpoint: mean survival time, dose: 25.0 mg/kg/injection, schedule: Q01DX009 (ip), vehicle: saline 104 % of control | endpoint: mean survival time, dose: 25.0 mg/kg/injection, schedule: Q04DX003 (ip), vehicle: saline 113 % of control | endpoint: mean survival time, dose: 50.0 mg/kg/injection, schedule: Q01DX009 (ip), vehicle: saline 98 % of control and 100 % of control | endpoint: mean survival time, dose: 50.0 mg/kg/injection, schedule: Q04DX003 (ip), vehicle: saline 97 % of control | endpoint: mean survival time, dose: 100.0 mg/kg/injection, schedule: Q04DX003 (ip), vehicle: saline 92 % of control

COC1=NS(=O)(=O)N=C(N(C)C)O1
inactive: [7] 105 % of control | [8] 96 % of control | [9] 105 % of control | [10] 96 % of control | [11] 103 % of control | [12] 97 % of control

Cc1ccc(NP(Br)(c2ccccc2)(c2ccccc2)c2ccccc2)cc1
inactive: endpoint: mean survival time, dose: 75.0 mg/kg/injection, schedule: Q01DX001 (ip), vehicle: acetone 95 % of control

Nc1[nH]c(=O)ncc1F
inactive: [1] 97 % of control | endpoint: mean survival time, dose: 100.0 mg/kg/injection, schedule: Q01DX001 (ip), vehicle: saline 102 % of control | [2] 98 % of control | [3] 104 % of control | endpoint: mean survival time, dose: 200.0 mg/kg/injection, schedule: Q01DX001 (ip), vehicle: saline 102 % of control | [4] 103 % of control | endpoint: mean survival time, dose: 400.0 mg/kg/injection, schedule: Q01DX001 (ip), vehicle: saline 100 % of control | [6] 103 % of control | endpoint: mean survival time, dose: 800.0 mg/kg/injection, schedule: Q01DX001 (ip), vehicle: saline 102 % of control | endpoint: mean survival time, dose: 800.0 mg/kg/injection, schedule: Q01DX009 (ip), vehicle: carboxymethylcellulose (CMC) 104 % of control | endpoint: median survival time, dose: 31.2 mg/kg/injection, schedule: Q03HX024 (ip), vehicle: water 100 % of control | endpoint: median survival time, dose: 62.5 mg/kg/injection, schedule: Q03HX024 (ip), vehicle: water 100 % of control | endpoint: median survival time, dose: 125.0 mg/kg/injection, schedule: Q03HX024 (ip), vehicle: water 100 % of control | endpoint: median survival time, dose: 250.0 mg/kg/injection, schedule: Q03HX024 (ip), vehicle: water 105 % of control | endpoint: median survival time, dose: 250.0 mg/kg/injection, schedule: Q04DX003 (ip), vehicle: water 100 % of control | endpoint: median survival time, dose: 500.0 mg/kg/injection, schedule: Q04DX003 (ip), vehicle: water 100 % of control | endpoint: median survival time, dose: 1000.0 mg/kg/injection, schedule: Q04DX003 (ip), vehicle: water 100 % of control

CC(=O)Nc1cc(C)c(C=O)cc1C
inactive: [1] 88 % of control | [3] 108 % of control | [5] 92 % of control

Cc1cc(N=Nc2ccc([N+](=O)[O-])cc2)ccc1O
inactive: [7] 98 % of control | [9] 95 % of control

CN(C)C(=S)Oc1ccc([N+](=O)[O-])cc1Cl
inactive: [13] 103 % of control | [14] 95 % of control | [15] 100 % of control

CN1CCC(OC(=O)N(c2ccccc2)c2ccccc2)CC1
inactive: endpoint: mean survival time, dose: 100.0 mg/kg/injection, schedule: Q01DX001 (ip), vehicle: saline with Tween-80 99 % of control | endpoint: mean survival time, dose: 200.0 mg/kg/injection, schedule: Q01DX001 (ip), vehicle: saline with Tween-80 105 % of control

CC1(C)N=C(N)N=C(N)N1c1ccc(CCCCc2ccccc2Cl)cc1
inactive: endpoint: mean survival time, dose: 12.5 mg/kg/injection, schedule: Q01DX001 (ip), vehicle: Klucel (hydroxypropylcellulose) (HPC) 95 % of control | endpoint: mean survival time, dose: 25.0 mg/kg/injection, schedule: Q01DX001 (ip), vehicle: Klucel (hydroxypropylcellulose) (HPC) 98 % of control

Nc1ccccc1SC1CC(=O)N(c2ccc3c(c2)OCO3)C1=O (stereo not given)
inactive: endpoint: mean survival time, dose: 100.0 mg/kg/injection, schedule: Q04DX002 (ip), vehicle: saline with Tween-80 93 % of control | endpoint: mean survival time, dose: 200.0 mg/kg/injection, schedule: Q04DX002 (ip), vehicle: saline with Tween-80 101 % of control | endpoint: mean survival time, dose: 400.0 mg/kg/injection, schedule: Q04DX002 (ip), vehicle: saline with Tween-80 86 % of control

CCCCNc1ccc(C(=O)O)cc1
inactive: endpoint: mean survival time, dose: 100.0 mg/kg/injection, schedule: Q01DX009 (ip), vehicle: gum acacia 97 % of control | endpoint: mean survival time, dose: 100.0 mg/kg/injection, schedule: Q04DX003 (ip), vehicle: gum acacia 90 % of control | endpoint: mean survival time, dose: 200.0 mg/kg/injection, schedule: Q01DX009 (ip), vehicle: gum acacia 92 % of control | endpoint: mean survival time, dose: 200.0 mg/kg/injection, schedule: Q04DX003 (ip), vehicle: gum acacia 91 % of control | endpoint: mean survival time, dose: 400.0 mg/kg/injection, schedule: Q01DX009 (ip), vehicle: gum acacia 93 % of control | endpoint: mean survival time, dose: 400.0 mg/kg/injection, schedule: Q04DX003 (ip), vehicle: gum acacia 93 % of control

Cc1cccc(C(O)c2cnc(C)n2Cc2ccccc2)c1 (stereo not given)
inactive: [7] 90 % of control | [13] 100 % of control and 86 % of control | endpoint: mean survival time, dose: 100.0 mg/kg/injection, schedule: Q04DX002 (ip), vehicle: Klucel (hydroxypropylcellulose) (HPC) 108 % of control and 89 % of control | [8] 92 % of control | [9] 100 % of control | [14] 97 % of control and 89 % of control | endpoint: mean survival time, dose: 200.0 mg/kg/injection, schedule: Q04DX002 (ip), vehicle: Klucel (hydroxypropylcellulose) (HPC) 96 % of control | [10] 96 % of control | [11] 97 % of control | [15] 93 % of control and 97 % of control | endpoint: mean survival time, dose: 400.0 mg/kg/injection, schedule: Q04DX002 (ip), vehicle: Klucel (hydroxypropylcellulose) (HPC) 93 % of control and 101 % of control | [12] 94 % of control

NS(=O)(=O)c1ccc(-c2ccc([As](=O)(O)O)cc2)cc1
inactive: endpoint: mean survival time, dose: 5.0 mg/kg/injection, schedule: Q01DX001 (ip), vehicle: saline 96 % of control | endpoint: mean survival time, dose: 10.0 mg/kg/injection, schedule: Q01DX001 (ip), vehicle: saline 87 % of control | endpoint: mean survival time, dose: 20.0 mg/kg/injection, schedule: Q01DX001 (ip), vehicle: saline 98 % of control | endpoint: mean survival time, dose: 40.0 mg/kg/injection, schedule: Q01DX001 (ip), vehicle: saline 96 % of control | endpoint: mean survival time, dose: 80.0 mg/kg/injection, schedule: Q01DX001 (ip), vehicle: saline 98 % of control

CCN(CC#N)c1ccc(Nc2cc(Cl)ccc2Cl)cc1
inactive: endpoint: mean survival time, dose: 75.0 mg/kg/injection, schedule: Q01DX001 (ip), vehicle: other 107 % of control | endpoint: mean survival time, dose: 150.0 mg/kg/injection, schedule: Q01DX001 (ip), vehicle: other 96 % of control | endpoint: mean survival time, dose: 300.0 mg/kg/injection, schedule: Q01DX001 (ip), vehicle: other 100 % of control
